Assay results taken from the kinase profiling compilation of Christmann-Franck et al. (2016).

What was measured:
Test in all cases: radiometric filter-binding kinase assay, Kinase HotSpot
Conditions in all cases: compound 0.5 µM; ATP 10 µM
CHUK (human) = CHUK (human) (UniProt O15111)
VRK1 (human) = VRK1 (human) (UniProt Q99986)
RPS6KB2 (human) = RPS6KB2 (human) (UniProt Q9UBS0)
MAPK9 (human) = MAPK9 (human) (UniProt P45984)
MAP3K3 (human) = MAP3K3 (human) (UniProt Q99759)
PRKX (human) = PRKX (human) (UniProt P51817)
PRKG2 (human) = PRKG2 (human) (UniProt Q13237)
MAPKAPK5 (human) = MAPKAPK5 (human) (UniProt Q8IW41)
SYK (human) = SYK (human) (UniProt P43405)
ADRBK2 (human) = ADRBK2 (human) (UniProt P35626)
PAK2 (human) = PAK2 (human) (UniProt Q13177)
Chain of PAK2 (human) (Q13177 whole entry, looked up): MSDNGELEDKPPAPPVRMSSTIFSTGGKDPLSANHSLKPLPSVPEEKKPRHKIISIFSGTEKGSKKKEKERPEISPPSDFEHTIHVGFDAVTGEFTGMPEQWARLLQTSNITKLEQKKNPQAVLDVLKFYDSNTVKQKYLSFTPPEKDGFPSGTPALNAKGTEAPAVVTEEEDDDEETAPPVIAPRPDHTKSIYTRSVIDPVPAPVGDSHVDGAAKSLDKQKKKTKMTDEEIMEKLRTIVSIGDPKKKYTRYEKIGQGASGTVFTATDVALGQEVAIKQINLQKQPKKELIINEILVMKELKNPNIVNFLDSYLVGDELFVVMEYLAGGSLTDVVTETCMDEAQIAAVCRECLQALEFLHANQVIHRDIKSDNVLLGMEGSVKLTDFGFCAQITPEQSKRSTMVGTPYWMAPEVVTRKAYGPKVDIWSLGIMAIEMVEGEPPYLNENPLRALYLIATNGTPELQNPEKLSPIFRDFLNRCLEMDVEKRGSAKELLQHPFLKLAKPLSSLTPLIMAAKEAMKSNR

IKBKB (human) = IKBKB (human) (UniProt O14920)
CDK5 CDK5R1 p25 (human) = CDK5 CDK5R1 p25 (human) (UniProt Q00535+Q15078)
MET (human) = MET (human) (UniProt P08581)
Chain of MET (human) (P08581 whole entry, looked up): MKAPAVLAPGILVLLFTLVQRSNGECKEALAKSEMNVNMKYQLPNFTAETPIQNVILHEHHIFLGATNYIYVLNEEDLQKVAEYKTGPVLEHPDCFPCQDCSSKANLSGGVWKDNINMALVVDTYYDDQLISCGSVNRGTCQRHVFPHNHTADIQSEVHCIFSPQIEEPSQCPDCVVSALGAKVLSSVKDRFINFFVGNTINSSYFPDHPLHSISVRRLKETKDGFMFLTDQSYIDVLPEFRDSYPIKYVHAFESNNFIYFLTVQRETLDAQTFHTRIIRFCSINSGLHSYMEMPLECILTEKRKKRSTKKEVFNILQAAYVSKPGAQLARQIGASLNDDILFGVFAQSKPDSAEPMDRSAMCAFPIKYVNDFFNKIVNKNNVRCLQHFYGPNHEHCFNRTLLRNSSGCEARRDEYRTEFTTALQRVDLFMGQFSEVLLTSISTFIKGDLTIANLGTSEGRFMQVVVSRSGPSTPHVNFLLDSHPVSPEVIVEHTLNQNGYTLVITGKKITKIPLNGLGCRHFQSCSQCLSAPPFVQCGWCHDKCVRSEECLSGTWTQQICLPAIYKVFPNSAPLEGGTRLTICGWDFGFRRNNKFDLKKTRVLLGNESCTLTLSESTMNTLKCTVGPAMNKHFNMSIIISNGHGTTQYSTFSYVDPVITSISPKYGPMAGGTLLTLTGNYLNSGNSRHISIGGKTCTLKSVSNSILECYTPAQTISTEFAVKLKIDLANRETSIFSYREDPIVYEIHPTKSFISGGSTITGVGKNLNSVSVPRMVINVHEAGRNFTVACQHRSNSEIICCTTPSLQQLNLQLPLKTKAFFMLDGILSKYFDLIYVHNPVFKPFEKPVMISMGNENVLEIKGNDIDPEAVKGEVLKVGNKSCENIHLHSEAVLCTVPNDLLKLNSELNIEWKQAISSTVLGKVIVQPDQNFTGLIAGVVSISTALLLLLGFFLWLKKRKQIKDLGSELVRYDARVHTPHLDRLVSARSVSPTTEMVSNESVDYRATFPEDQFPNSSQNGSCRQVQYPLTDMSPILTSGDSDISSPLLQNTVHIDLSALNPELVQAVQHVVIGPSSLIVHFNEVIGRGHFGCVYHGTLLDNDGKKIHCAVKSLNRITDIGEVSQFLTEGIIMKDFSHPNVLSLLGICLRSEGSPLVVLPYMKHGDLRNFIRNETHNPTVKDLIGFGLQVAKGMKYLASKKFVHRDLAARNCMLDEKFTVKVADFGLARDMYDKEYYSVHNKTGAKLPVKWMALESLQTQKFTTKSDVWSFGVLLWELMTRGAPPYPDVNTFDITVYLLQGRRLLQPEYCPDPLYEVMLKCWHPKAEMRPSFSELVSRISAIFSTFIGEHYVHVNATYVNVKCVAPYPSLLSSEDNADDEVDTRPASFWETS

ROCK1 (human) = ROCK1 (human) (UniProt Q13464)
PAK1 (human) = PAK1 (human) (UniProt Q13153)
CDC42BPA (human) = CDC42BPA (human) (UniProt Q5VT25)
GRK6 (human) = GRK6 (human) (UniProt P43250)
CAMK1 (human) = CAMK1 (human) (UniProt Q14012)
CDK9 CCNT1 (human) = CDK9 CCNT1 (human) (UniProt P50750+O60563)
PAK3 (human) = PAK3 (human) (UniProt O75914)
WNK3 (human) = WNK3 (human) (UniProt Q9BYP7)
INSRR (human) = INSRR (human) (UniProt P14616)
FER (human) = FER (human) (UniProt P16591)
Chain of FER (human) (P16591 whole entry, looked up): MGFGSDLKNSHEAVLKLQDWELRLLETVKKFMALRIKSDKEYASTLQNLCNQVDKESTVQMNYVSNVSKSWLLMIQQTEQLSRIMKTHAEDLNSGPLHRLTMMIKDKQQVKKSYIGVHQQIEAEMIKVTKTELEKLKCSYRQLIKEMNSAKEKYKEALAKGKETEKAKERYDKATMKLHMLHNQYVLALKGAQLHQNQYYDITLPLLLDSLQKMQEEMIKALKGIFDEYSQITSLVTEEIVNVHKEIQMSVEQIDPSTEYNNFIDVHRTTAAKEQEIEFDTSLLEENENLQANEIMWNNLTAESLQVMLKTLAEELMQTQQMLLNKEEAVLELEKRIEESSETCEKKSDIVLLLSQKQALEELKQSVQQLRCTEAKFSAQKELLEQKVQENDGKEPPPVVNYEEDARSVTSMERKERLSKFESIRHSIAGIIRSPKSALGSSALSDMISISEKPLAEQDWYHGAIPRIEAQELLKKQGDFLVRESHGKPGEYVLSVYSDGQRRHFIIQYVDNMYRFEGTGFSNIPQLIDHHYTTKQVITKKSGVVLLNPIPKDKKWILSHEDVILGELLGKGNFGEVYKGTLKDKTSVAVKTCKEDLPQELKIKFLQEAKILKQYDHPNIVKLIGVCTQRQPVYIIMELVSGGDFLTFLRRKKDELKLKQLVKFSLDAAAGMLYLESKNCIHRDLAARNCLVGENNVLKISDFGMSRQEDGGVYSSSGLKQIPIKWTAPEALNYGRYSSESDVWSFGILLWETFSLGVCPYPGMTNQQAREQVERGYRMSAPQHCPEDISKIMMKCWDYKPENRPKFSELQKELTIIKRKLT

MKNK2 (human) = MKNK2 (human) (UniProt Q9HBH9)
ROCK2 (human) = ROCK2 (human) (UniProt O75116)
RPS6KA4 KD2 (human) = RPS6KA4 KD2 (human) (UniProt O75676)
MAPK13 (human) = MAPK13 (human) (UniProt O15264)
FGR (human) = FGR (human) (UniProt P09769)
ALK (human) = ALK (human) (UniProt Q9UM73)
CSNK1G1 (human) = CSNK1G1 (human) (UniProt Q9HCP0)
AKT3 (human) = AKT3 (human) (UniProt Q9Y243)
TSSK2 (human) = TSSK2 (human) (UniProt Q96PF2)
PRKCI (human) = PRKCI (human) (UniProt P41743)
SRPK1 (human) = SRPK1 (human) (UniProt Q96SB4)
MAPK8 (human) = MAPK8 (human) (UniProt P45983)
PRKCB2 (human) = PRKCB2 (human) (UniProt P05771)
PDGFRB (human) = PDGFRB (human) (UniProt P09619)
Chain of PDGFRB (human) (P09619 whole entry, looked up): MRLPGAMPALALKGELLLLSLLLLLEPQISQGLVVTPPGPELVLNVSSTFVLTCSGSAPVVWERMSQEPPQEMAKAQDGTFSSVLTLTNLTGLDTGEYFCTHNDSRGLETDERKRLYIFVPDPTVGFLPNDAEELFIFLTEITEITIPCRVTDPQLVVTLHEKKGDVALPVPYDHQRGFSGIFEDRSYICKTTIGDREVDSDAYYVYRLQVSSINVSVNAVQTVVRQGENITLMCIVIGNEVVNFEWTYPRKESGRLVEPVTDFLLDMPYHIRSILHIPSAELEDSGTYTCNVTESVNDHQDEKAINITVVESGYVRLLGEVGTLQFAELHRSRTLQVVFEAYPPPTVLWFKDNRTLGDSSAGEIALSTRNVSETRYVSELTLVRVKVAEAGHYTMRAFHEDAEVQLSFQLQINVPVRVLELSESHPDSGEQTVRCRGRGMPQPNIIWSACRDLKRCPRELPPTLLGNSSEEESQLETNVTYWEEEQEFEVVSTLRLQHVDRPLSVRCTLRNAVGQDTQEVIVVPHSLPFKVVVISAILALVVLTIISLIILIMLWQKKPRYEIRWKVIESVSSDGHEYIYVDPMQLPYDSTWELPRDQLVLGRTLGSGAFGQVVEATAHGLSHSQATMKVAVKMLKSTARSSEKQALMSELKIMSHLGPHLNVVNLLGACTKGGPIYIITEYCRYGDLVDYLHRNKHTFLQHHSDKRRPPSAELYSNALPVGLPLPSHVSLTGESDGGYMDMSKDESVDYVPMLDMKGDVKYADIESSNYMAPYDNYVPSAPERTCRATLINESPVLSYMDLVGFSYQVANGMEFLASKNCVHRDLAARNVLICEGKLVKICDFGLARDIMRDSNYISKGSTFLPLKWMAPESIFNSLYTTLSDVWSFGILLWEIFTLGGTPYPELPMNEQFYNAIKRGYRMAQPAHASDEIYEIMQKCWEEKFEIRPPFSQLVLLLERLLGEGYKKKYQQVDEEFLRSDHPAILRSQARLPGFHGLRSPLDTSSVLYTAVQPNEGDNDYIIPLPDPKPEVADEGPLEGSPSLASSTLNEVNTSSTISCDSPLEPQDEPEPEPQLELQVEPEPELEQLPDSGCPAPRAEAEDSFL

CLK3 (human) = CLK3 (human) (UniProt P49761)
Chain of CLK3 (human) (P49761 whole entry, looked up): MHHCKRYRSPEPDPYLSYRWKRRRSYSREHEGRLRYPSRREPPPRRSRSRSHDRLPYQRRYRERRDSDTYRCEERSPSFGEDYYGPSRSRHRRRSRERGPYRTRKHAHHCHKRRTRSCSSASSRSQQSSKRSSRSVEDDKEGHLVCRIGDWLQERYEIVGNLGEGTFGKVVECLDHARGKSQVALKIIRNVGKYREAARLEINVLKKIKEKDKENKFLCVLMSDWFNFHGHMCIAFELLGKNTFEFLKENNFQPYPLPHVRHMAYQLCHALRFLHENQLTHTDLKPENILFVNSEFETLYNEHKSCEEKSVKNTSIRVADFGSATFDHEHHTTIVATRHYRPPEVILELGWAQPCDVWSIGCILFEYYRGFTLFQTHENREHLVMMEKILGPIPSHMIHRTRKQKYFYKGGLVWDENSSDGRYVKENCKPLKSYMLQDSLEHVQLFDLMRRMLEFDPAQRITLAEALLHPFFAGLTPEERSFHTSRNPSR

EPHA5 (human) = EPHA5 (human) (UniProt P54756)
PAK4 (human) = PAK4 (human) (UniProt O96013)
EPHA2 (human) = EPHA2 (human) (UniProt P29317)

Chain of CHUK (human) (O15111 whole entry, looked up): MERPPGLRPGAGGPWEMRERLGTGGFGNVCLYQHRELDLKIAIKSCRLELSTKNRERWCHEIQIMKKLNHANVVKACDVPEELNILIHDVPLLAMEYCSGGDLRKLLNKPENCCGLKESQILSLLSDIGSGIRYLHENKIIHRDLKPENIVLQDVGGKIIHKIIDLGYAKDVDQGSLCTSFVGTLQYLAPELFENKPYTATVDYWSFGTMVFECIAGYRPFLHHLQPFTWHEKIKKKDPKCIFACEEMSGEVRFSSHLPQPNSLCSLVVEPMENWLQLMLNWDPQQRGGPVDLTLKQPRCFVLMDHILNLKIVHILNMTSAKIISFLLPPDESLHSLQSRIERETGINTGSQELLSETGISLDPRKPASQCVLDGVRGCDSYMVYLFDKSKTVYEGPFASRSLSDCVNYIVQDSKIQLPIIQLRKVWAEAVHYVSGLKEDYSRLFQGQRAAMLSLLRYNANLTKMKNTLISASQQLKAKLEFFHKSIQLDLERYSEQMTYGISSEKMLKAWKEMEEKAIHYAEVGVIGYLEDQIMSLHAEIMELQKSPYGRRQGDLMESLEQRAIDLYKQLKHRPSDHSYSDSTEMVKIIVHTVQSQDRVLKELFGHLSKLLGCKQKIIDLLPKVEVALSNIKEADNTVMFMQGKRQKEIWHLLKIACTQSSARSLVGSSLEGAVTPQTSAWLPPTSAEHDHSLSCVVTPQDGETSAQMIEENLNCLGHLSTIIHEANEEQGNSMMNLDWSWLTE

Structure (SMILES): CCOc1cc2ncnc(Nc3cccc(Br)c3)c2cc1OCC
- residual activity (CHUK (human)): 105%
- residual activity (VRK1 (human)): 101%
- residual activity (RPS6KB2 (human)): 102%
- residual activity (MAPK9 (human)): 98.5%
- residual activity (MAP3K3 (human)): 92.9%
- residual activity (PRKX (human)): 99.8%
- residual activity (PRKG2 (human)): 83.9%
- residual activity (MAPKAPK5 (human)): 71.6%
- residual activity (SYK (human)): 95.6%
- residual activity (ADRBK2 (human)): 93.8%
- residual activity (PAK2 (human)): 105%
- residual activity (IKBKB (human)): 102%
- residual activity (CDK5 CDK5R1 p25 (human)): 89.5%
- residual activity (MET (human)): 78.6%
- residual activity (ROCK1 (human)): 98.8%
- residual activity (PAK1 (human)): 95.2%
- residual activity (CDC42BPA (human)): 85.4%
- residual activity (GRK6 (human)): 96%
- residual activity (CAMK1 (human)): 79.9%
- residual activity (CDK9 CCNT1 (human)): 98.5%
- residual activity (PAK3 (human)): 97.6%
- residual activity (WNK3 (human)): 96.5%
- residual activity (INSRR (human)): 88.8%
- residual activity (FER (human)): 90.7%
- residual activity (MKNK2 (human)): 34.3%
- residual activity (ROCK2 (human)): 91.8%
- residual activity (RPS6KA4 KD2 (human)): 95.4%
- residual activity (MAPK13 (human)): 96.7%
- residual activity (FGR (human)): 61.9%
- residual activity (ALK (human)): 85.8%
- residual activity (CSNK1G1 (human)): 107%
- residual activity (AKT3 (human)): 104%
- residual activity (TSSK2 (human)): 104%
- residual activity (PRKCI (human)): 100%
- residual activity (SRPK1 (human)): 102%
- residual activity (MAPK8 (human)): 90.7%
- residual activity (PRKCB2 (human)): 98.6%
- residual activity (PDGFRB (human)): 94.8%
- residual activity (CLK3 (human)): 85.3%
- residual activity (EPHA5 (human)): 69.5%
- residual activity (PAK4 (human)): 115%
- residual activity (EPHA2 (human)): 80.3%

Structure (SMILES): O=C(c1ccccc1)c1ccc(N2CCOCC2)cc1O
- residual activity (CHUK (human)): 101%
- residual activity (VRK1 (human)): 89.7%
- residual activity (RPS6KB2 (human)): 100%
- residual activity (MAPK9 (human)): 98.9%
- residual activity (MAP3K3 (human)): 97.8%
- residual activity (PRKX (human)): 109%
- residual activity (PRKG2 (human)): 102%
- residual activity (MAPKAPK5 (human)): 99.8%
- residual activity (SYK (human)): 96.6%
- residual activity (ADRBK2 (human)): 103%
- residual activity (PAK2 (human)): 103%
- residual activity (IKBKB (human)): 105%
- residual activity (CDK5 CDK5R1 p25 (human)): 98.8%
- residual activity (MET (human)): 115%
- residual activity (ROCK1 (human)): 93.4%
- residual activity (PAK1 (human)): 91.8%
- residual activity (CDC42BPA (human)): 95.5%
- residual activity (GRK6 (human)): 99.4%
- residual activity (CAMK1 (human)): 97.5%
- residual activity (CDK9 CCNT1 (human)): 97.9%
- residual activity (PAK3 (human)): 99.4%
- residual activity (WNK3 (human)): 104%
- residual activity (INSRR (human)): 97.6%
- residual activity (FER (human)): 94.2%
- residual activity (MKNK2 (human)): 90.6%
- residual activity (ROCK2 (human)): 96%
- residual activity (RPS6KA4 KD2 (human)): 105%
- residual activity (MAPK13 (human)): 106%
- residual activity (FGR (human)): 104%
- residual activity (ALK (human)): 102%
- residual activity (CSNK1G1 (human)): 105%
- residual activity (AKT3 (human)): 105%
- residual activity (TSSK2 (human)): 104%
- residual activity (PRKCI (human)): 98.3%
- residual activity (SRPK1 (human)): 94.2%
- residual activity (MAPK8 (human)): 99.5%
- residual activity (PRKCB2 (human)): 99.2%
- residual activity (PDGFRB (human)): 96.5%
- residual activity (CLK3 (human)): 90.2%
- residual activity (EPHA5 (human)): 112%
- residual activity (PAK4 (human)): 104%
- residual activity (EPHA2 (human)): 104%
